From patent US20230064983A1 (priority 2020, published 2023) come the findings set out here.

In assay [1] the target is T1, EGFR with insertion SVD between D770 and N771 (mutEGFR D770_N771insSVD) (Homo sapiens, UniProt P00533, DUP768-770).
T1 construct: amino acids R669 to A1210; made in house; host or cells: Sf9 insect cells (baculovirus)
Put plainly: Exon20-Mutant-EGFR(D770_N771insSVD) kinase assay (TR-FRET). To be noted: 2 mM ATP, Table 2. The assay is classed as biochemical. A general note: In TR-FRET formats the signal depends on donor and acceptor labels being close together.

For assay [2], the target named is T2, Bub1 (Homo sapiens, UniProt O43683).
T2 construct: catalytic domain of human Bub1 (amino acids 704-1085); His6 (N); made in house; host or cells: insect cells (Hi5)
T2 sequence (O43683 704-1085): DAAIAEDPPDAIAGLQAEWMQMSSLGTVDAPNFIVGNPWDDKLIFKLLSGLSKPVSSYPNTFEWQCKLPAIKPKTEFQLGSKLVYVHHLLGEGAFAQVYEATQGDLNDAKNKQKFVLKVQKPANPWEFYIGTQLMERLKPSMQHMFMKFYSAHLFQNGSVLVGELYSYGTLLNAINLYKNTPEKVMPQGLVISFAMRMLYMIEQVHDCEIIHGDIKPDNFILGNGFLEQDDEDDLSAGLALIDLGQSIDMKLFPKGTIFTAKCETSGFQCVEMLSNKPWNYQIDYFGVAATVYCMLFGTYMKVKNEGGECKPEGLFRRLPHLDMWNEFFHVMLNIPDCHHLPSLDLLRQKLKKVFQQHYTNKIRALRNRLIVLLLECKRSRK
Put plainly: Bub1 high ATP kinase assay (TR-FRET). Format: biochemical. To be noted: Bub1 high ATP (2 mM) IC50, TR-FRET, 2 mM ATP; Table 3. In a few lines:
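Read-out was the 665/620 nm TR-FRET ratio after 1 h at 22 °C with EDTA stop mix (streptavidin-XL665, anti-phosphoserine antibody, Eu anti-mouse IgG). Beforehand, a biotinylated peptide was phosphorylated for 60 min at 22 °C under high ATP by His6-tagged human Bub1 residues 704-1085 expressed in Hi5 cells, about 200 ng/ml.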

The target in assay [3] is Ba/F3-EGFR-D770_N771insSVD cells (Homo sapiens, UniProt P00533, DUP768-770, cells depend on it). The assay can be described thus: Ba/F3 cell survival assay, EGFR D770_N771insSVD. Format: cell-based.
Chain of Ba/F3-EGFR-D770_N771insSVD cells (P00533 with tags, fused parts or gaps DUP768-770): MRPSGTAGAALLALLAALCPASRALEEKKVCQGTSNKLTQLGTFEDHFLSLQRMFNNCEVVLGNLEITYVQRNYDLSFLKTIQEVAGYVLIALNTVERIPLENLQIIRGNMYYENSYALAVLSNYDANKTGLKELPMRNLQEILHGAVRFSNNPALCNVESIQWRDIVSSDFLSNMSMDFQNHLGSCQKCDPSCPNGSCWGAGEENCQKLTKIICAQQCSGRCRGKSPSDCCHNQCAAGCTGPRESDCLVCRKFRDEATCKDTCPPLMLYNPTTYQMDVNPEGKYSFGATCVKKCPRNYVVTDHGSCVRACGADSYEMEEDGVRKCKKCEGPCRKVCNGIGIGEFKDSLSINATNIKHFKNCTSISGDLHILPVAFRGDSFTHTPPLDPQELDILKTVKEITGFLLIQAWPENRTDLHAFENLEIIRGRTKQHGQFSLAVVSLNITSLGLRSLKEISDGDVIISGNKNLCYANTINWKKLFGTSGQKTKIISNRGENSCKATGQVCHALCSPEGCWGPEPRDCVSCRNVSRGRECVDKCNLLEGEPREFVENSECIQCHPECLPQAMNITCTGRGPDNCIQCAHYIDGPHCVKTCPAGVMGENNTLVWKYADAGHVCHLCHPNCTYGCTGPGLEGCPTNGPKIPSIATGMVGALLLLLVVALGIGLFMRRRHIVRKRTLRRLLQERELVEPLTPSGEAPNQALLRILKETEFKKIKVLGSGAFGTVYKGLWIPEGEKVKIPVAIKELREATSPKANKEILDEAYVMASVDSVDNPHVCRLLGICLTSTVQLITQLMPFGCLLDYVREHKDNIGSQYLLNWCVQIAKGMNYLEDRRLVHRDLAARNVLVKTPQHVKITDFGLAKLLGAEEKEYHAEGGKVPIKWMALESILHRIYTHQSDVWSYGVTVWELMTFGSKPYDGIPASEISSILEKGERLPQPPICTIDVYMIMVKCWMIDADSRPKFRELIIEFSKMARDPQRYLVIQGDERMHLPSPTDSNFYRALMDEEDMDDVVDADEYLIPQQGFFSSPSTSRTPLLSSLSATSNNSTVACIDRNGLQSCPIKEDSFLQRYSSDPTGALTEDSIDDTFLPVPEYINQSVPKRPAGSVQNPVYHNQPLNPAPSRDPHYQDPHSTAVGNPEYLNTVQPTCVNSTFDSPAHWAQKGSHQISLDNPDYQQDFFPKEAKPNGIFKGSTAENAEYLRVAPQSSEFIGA
Assay [4] addresses Ba/F3-EGFR-WT cells (Homo sapiens, UniProt P00533). The assay can be described thus: Ba/F3 cell survival assay, wild type EGFR. Format: cell-based.
[5] abbreviates: Cell Titer-Glo, 48 h, without IL-3; Table 4; read-out: BA/F3 (insSVD) IC50.
The mark [6] stands for this setting: Cell Titer-Glo, 48 h, with 10 ng/mL EGF; Table 4; read-out: BA/F3 (wild type) IC50.

Like-named read-outs stand apart in the source and are kept apart here.

What is called IC50 is the midpoint of a concentration-inhibition curve. A higher IC50 goes with weaker potency.

T1 sequence (P00533 other isoform, or with tags, fused parts or gaps DUP768-770): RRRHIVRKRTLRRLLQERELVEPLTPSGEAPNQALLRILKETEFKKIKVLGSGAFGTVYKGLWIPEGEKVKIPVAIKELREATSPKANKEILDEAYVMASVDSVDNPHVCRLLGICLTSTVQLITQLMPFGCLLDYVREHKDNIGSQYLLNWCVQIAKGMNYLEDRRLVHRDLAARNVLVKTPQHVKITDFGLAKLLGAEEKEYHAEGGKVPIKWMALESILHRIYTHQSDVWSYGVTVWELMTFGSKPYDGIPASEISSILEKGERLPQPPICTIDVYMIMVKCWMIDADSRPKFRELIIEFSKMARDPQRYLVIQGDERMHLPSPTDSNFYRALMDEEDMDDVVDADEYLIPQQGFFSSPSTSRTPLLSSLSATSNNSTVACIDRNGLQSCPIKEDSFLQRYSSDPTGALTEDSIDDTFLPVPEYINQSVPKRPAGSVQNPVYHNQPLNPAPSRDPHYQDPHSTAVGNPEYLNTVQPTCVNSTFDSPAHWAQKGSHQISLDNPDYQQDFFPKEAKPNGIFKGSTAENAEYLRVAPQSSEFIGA
Chain of Ba/F3-EGFR-WT cells (P00533 whole entry, looked up, stated change not applied): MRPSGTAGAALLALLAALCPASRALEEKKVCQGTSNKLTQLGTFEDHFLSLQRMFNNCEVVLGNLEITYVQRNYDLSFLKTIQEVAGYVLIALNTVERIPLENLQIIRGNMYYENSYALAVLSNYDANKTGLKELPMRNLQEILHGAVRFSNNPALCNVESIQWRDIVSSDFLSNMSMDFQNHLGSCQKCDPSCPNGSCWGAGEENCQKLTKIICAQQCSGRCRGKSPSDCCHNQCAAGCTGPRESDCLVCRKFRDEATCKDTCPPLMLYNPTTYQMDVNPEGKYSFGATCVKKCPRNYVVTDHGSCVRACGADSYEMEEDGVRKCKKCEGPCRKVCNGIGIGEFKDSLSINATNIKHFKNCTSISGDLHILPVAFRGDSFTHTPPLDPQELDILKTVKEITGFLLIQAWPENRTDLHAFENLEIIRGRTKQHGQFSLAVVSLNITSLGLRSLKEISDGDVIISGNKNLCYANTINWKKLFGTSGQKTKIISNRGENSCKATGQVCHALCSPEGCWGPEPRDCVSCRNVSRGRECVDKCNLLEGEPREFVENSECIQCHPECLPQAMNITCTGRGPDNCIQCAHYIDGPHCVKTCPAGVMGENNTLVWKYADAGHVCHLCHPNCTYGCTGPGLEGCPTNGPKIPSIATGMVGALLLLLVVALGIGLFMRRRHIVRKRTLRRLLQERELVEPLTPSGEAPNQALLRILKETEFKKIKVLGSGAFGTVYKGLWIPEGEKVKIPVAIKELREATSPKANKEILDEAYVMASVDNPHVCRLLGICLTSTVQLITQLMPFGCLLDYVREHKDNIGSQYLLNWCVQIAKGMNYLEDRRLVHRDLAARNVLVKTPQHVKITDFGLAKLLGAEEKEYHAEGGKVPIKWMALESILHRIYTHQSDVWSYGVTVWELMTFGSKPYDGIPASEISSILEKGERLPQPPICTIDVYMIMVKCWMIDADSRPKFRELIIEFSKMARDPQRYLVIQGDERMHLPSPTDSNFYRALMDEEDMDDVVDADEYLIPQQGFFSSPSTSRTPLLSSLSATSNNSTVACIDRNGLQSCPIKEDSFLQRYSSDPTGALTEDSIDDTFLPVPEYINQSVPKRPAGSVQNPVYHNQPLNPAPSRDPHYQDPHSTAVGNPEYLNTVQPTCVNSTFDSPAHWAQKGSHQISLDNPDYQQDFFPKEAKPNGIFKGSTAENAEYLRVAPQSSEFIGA

Turning to `Cc1c(Cl)cccc1Nc1c(-c2ccncc2OCC2COC(C)(C)CO2)[nH]c2c1C(=O)NCC2C` (centres unmarked) [Example 62, 3-(3-chloro-2-methyl-anilino)-2-[3-[(5,5-dimethyl-1,4-dioxan-2-yl)methoxy]-4-pyridyl]-7-methyl-1,5,6,7-tetrahydropyrrolo[3,2-c]pyridin-4-one], the “mutEGFR (D770_N771insSVD) kinase assay IC50” value (from here on “mutEGFR”) in assay [1] amounted to 0.000329 µM. Moreover, the IC50 in assay [2] worked out at 8.03 µM. Further, the values for the GI50 in assay [3] (setting [5]) and in assay [4] (setting [6]) were 0.0526 µM and 1.1 µM, respectively.
The corresponding values for `C[C@@H]1Cc2[nH]c(-c3ccncc3OC[C@@H]3CCCO3)c(Nc3cccc(F)c3CC(F)F)c2C(=O)N1` [Example 63, (6R)-3-[2-(2,2-difluoroethyl)-3-fluoroanilino]-6-methyl-2-(3-{[(2S)-oxolan-2-yl]methoxy}pyridin-4-yl)-1,5,6,7-tetrahydro-4H-pyrrolo[3,2-c]pyridin-4-one] are 0.000211 µM, 14.1 µM, 0.117 µM and 1.17 µM.
With `COc1c(Cl)cccc1Nc1c(-c2ccncc2OC[C@@H]2CN(C)CCO2)[nH]c2c1C(=O)N[C@@H]1CCC[C@H]21` [Example 64, (5aR,8aS)-3-(3-chloro-2-methoxyanilino)-2-(3-{[(2S)-4-methylmorpholin-2-yl]methoxy}pyridin-4-yl)-5,5a,6,7,8,8a-hexahydrocyclopenta[b]pyrrolo[2,3-d]pyridin-4(1H)-one], the “mutEGFR” value in assay [1] stood at 0.000361 µM. Also, the IC50 in assay [2] is over 20 µM. The GI50 worked out at 0.0476 µM in assay [3] (setting [5]) and 0.643 µM in assay [4] (setting [6]).
For `COC(C)(C)COc1cnccc1-c1[nH]c2c(c1Nc1cccc(F)c1CC(F)F)C(=O)N[C@H](C)C2` [Example 65, (6R)-3-[2-(2,2-difluoroethyl)-3-fluoroanilino]-2-[3-(2-methoxy-2-methylpropoxy)pyridin-4-yl]-6-methyl-1,5,6,7-tetrahydro-4H-pyrrolo[3,2-c]pyridin-4-one], in that order: 0.00024 µM, 2.52 µM, 0.072 µM and 0.795 µM.
`Cc1c(Cl)cccc1Nc1c(-c2ccncc2OCC2COCCO2)[nH]c2c1C(=O)NCC2C` (centres unmarked) [Example 66, 3-(3-chloro-2-methyl-anilino)-2-[3-(1,4-dioxan-2-ylmethoxy)-4-pyridyl]-7-methyl-1,5,6,7-tetrahydropyrrolo[3,2-c]pyridin-4-one]: the “mutEGFR” value in assay [1] turned out to be 0.000145 µM. In assay [2], half-maximal inhibition (IC50) was put at 1.73 µM. The GI50 in assay [3] (setting [5]) was found to be 0.0428 µM; in assay [4] (setting [6]) it was 0.766 µM.
Turning to `COc1c(Cl)cccc1Nc1c(-c2ccncc2OCCC2CCCCO2)[nH]c2c1C(=O)N[C@H](C)C2` (stereo partly drawn) [Example 86, (6R)-3-(3-chloro-2-methoxy-anilino)-6-methyl-2-[3-(2-tetrahydropyran-2-ylethoxy)-4-pyridyl]-1,5,6,7-tetrahydropyrrolo[3,2-c]pyridin-4-one], the “mutEGFR” value in assay [1] is 0.000261 µM. This compound also registered an IC50 in assay [2] of 2.4 µM. Moreover, the results for the GI50 in assay [3] (setting [5]) and in assay [4] (setting [6]) were 0.0193 µM and 0.48 µM, respectively.
The corresponding values for `CCc1c(Cl)cccc1Nc1c(-c2ccncc2OC[C@@H]2CN(C)CCO2)[nH]c2c1C(=O)N[C@H](C)C2` [Example 91, (6R)-3-(3-chloro-2-ethylanilino)-6-methyl-2-(3-{[(2S)-4-methylmorpholin-2-yl]methoxy}pyridin-4-yl)-1,5,6,7-tetrahydro-4H-pyrrolo[3,2-c]pyridin-4-one] are 0.000334 µM, over 20 µM, 0.0302 µM and 0.556 µM.
As to `COc1c(Cl)cccc1Nc1c(-c2ccncc2OCC[C@@H]2CCCO2)[nH]c2c1C(=O)N[C@H](C)C2` [Example 92, (6R)-3-(3-chloro-2-methoxyanilino)-6-methyl-2-(3-{2-[(2S)-oxolan-2-yl]ethoxy}pyridin-4-yl)-1,5,6,7-tetrahydro-4H-pyrrolo[3,2-c]pyridin-4-one], in assay [1], the “mutEGFR” value was determined as 0.000243 µM. Further, the IC50 in assay [2] turned out to be 1.98 µM. For the same compound, the GI50 in assay [3] (setting [5]) was found to be 0.0202 µM; in assay [4] (setting [6]), 0.519 µM.
As for `COc1c(Cl)cccc1Nc1c(-c2ccncc2OC[C@@H]2COCCN2C)[nH]c2c1C(=O)N[C@H](C)C2` [Example 93, (6R)-3-(3-chloro-2-methoxyanilino)-6-methyl-2-(3-{[(3S)-4-methylmorpholin-3-yl]methoxy}pyridin-4-yl)-1,5,6,7-tetrahydro-4H-pyrrolo[3,2-c]pyridin-4-one], the “mutEGFR” value in assay [1] was 0.0004 µM. Further, in assay [2], 5.42 µM corresponded to half-maximal inhibition (IC50). Also, the GI50 in assay [3] (setting [5]) came out at 0.00867 µM; in assay [4] (setting [6]), 0.254 µM.
The corresponding values for `Cc1c(Cl)cccc1Nc1c(-c2ccncc2OCC2COCCO2)[nH]c2c1C(=O)N[C@H](C)C2` (stereo partly drawn) [Example 102, (6R)-3-(3-chloro-2-methylanilino)-2-{3-[(1,4-dioxan-2-yl)methoxy]pyridin-4-yl}-6-methyl-1,5,6,7-tetrahydro-4H-pyrrolo[3,2-c]pyridin-4-one] are 0.000121 µM, 1.03 µM, 0.0387 µM and 0.869 µM.
For `Cc1c(Cl)cccc1Nc1c(-c2ccncc2OC[C@@H]2COCCO2)[nH]c2c1C(=O)N[C@H](C)C2` [Example 103, (6R)-3-(3-chloro-2-methylanilino)-2-(3-{[(2S)-1,4-dioxan-2-yl]methoxy}pyridin-4-yl)-6-methyl-1,5,6,7-tetrahydro-4H-pyrrolo[3,2-c]pyridin-4-one], in that order: 0.000184 µM, 1.65 µM, 0.0322 µM and 0.529 µM.
Take `Cc1c(Cl)cccc1Nc1c(-c2ccncc2OC[C@@H]2CCCO2)[nH]c2c1C(=O)N[C@H](C)C2` [Example 104, (6R)-3-(3-chloro-2-methylanilino)-6-methyl-2-(3-{[(2S)-oxolan-2-yl]methoxy}pyridin-4-yl)-1,5,6,7-tetrahydro-4H-pyrrolo[3,2-c]pyridin-4-one]: the “mutEGFR” value in assay [1] is 0.000162 µM. The compound also came in with an IC50 in assay [2] of 3.63 µM. For the same compound, the GI50 is 0.0323 µM in assay [3] (read-out: BA/F3 (insSVD) IC50; Cell Titer-Glo, 48 h, without IL-3; Table 4) and 0.983 µM in assay [4] (read-out: BA/F3 (wild type) IC50; Cell Titer-Glo, 48 h, with 10 ng/mL EGF; Table 4).
For the compound `COCC(C)Oc1cnccc1-c1[nH]c2c(c1Nc1cccc(Cl)c1C)C(=O)N[C@H](C)C2` (stereo partly drawn) [Example 105, (6R)-3-(3-chloro-2-methylanilino)-2-{3-[(1-methoxypropan-2-yl)oxy]pyridin-4-yl}-6-methyl-1,5,6,7-tetrahydro-4H-pyrrolo[3,2-c]pyridin-4-one], the “mutEGFR” value in assay [1] came to 0.000324 µM. This compound returned a half-inhibitory concentration (IC50) in assay [2] of 3.7 µM. The GI50 in assay [3] (setting [5]) was determined as 0.0447 µM; in assay [4] (setting [6]), 0.884 µM.
For `Cc1c(Cl)cccc1Nc1c(-c2ccncc2OC[C@H]2CN(C)CCO2)[nH]c2c1C(=O)N[C@H](C)C2` [Example 106, (6R)-3-(3-chloro-2-methylanilino)-6-methyl-2-(3-{[(2R)-4-methylmorpholin-2-yl]methoxy}pyridin-4-yl)-1,5,6,7-tetrahydro-4H-pyrrolo[3,2-c]pyridin-4-one], in that order: 0.00018 µM, 11.6 µM, 0.318 µM and 3.02 µM.
